Legend:
CDK2/cyclin A = target: T1, CDK2/cyclin A (Homo sapiens, UniProt P24941); assay: Inhibition of CDK2/cyclin A retinoblastoma kinase activity (Ki; % inhibition); format: biochemical
T1 construct: made in house; host or cells: CDK2: insect cells (baculovirus); cyclin A: E. coli
Method in brief: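 Apparent Ki values came from fitting concentration-dependent activity data to competitive (or competitive tight-binding) models, and % inhibition from single 30 nM screens of library compounds. Activity was measured as ³²P/³³P incorporation from 25 μM ATP into an Rb substrate by 10 or 19 nM CDK2/delta cyclin A at 30 °C over 60–75 min, pH 7.4.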

human CDK4/cyclin D3 = target: T2, human CDK4/cyclin D3 (Homo sapiens, UniProt P11802); assay: Inhibition of CDK4/cyclin D retinoblastoma kinase activity (Ki; % inhibition); format: biochemical
T2 construct: made in house; host or cells: insect cells co-infected with baculovirus vectors
Method in brief: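 Radiometric filter-binding read-out: Rb residues 386-928 phosphorylated by 5 nM CDK4/cyclin D3(1-264) from baculovirus-infected insect cells, 25 μM ATP, HEPES pH 7.4, 30 °C. Run 20 min, or 60 min for tight-binding inhibitors. Screening at 30 nM theoretical compound; apparent Ki by competitive-inhibition fitting.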

HCT-116 cell line = assay: Inhibition of cell growth, MTT tetrazolium salt assay; format: cell-based
Method in brief: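 Cells in McCoy's 5A medium were given 4 h before compound addition in 0.5% (v/v) DMSO, then incubated 3–5 days at 37 °C, 5% CO2. After 4 h with 0.2 mg/mL MTT, DMSO-solubilized formazan was read at 540 nm; 50% and 90% growth-inhibitory concentrations came from semi-log plots against vehicle controls.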

[1] = HCT-116 cells, 0.25 μM compound

T2 sequence (P11802 whole entry): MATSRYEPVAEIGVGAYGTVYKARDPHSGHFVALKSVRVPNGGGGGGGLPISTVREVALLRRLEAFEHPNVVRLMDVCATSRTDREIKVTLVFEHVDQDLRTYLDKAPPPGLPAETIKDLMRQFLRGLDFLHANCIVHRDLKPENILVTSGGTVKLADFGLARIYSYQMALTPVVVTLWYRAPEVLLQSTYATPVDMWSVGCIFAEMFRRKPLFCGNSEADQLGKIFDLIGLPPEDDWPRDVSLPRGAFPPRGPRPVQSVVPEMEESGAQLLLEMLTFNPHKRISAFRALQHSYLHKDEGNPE
T2 sequence (P30281 1-264 partner limits assumed): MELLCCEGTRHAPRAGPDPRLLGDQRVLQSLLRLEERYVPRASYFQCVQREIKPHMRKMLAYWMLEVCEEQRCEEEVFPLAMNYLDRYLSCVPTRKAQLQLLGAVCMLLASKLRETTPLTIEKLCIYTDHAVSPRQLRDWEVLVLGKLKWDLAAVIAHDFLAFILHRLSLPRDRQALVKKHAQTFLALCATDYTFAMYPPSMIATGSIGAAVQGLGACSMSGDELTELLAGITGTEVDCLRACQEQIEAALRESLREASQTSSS

SMILES | CDK2 % Inhibition at 0.03 μM (CDK2/cyclin A; at 0.03 μM) | CDK4 % Inhibition at 0.03 μM (human CDK4/cyclin D3; at 0.03 μM) | HCT-116 % Inhibition at 0.25 μM (HCT-116 cell line; HCT-116, at 0.25 μM) | CDK2 % Inhibition at 0.03 μM (CDK2/cyclin A; 0.03 μM compound) | CDK4 % Inhibition at 0.03 μM (human CDK4/cyclin D3; 0.03 μM compound) | HCT-116 % Inhibition at 0.1 μM (HCT-116 cell line; HCT-116 cells, 0.1 μM compound) | HCT-116 % Inhibition at 0.25 μM (HCT-116 cell line; [1]) | also measured
Nc1nc(Nc2ccc(C(=O)NC3CCN(Cc4ccccc4)CC3)cc2)sc1C(=O)c1c(F)cccc1F [Example A13, 4-[4-Amino-5-(2,6-difluoro-benzoyl)-thiazol-2-ylamino]-N-(1-benzyl-piperidin-4-yl)-benzamide] |  |  |  |  |  |  |  | Ki (CDK2/cyclin A; apparent Ki, CDK2/cyclin A, Rb substrate): 79 nM; Ki (human CDK4/cyclin D3; apparent Ki, CDK4/cyclin D3, Rb substrate): 9 nM; IC50 (HCT-116 cell line; Homo sapiens, HCT-116, 120 h, MTT, three to five days): 210 nM
Cc1cc(NC(=O)c2ccc(Nc3nc(N)c(C(=O)c4c(F)cccc4F)s3)cc2)ccc1Cl [Example G38] | 3% | 7% | 65% |  |  |  |  | 
Nc1nc(Nc2ccc(C(=O)NCc3ccc(Cl)cc3Cl)cc2)sc1C(=O)c1c(F)cccc1F [Example G236] |  |  |  | 39% | 36% | 16% | 66% | 
Nc1nc(Nc2ccc(C(=O)N3CCC(O)CC3)cc2)sc1C(=O)c1c(F)cccc1F [Example G56] | 24% | 10% | 59% |  |  |  |  | 
COc1ccc(NC(=O)c2ccc(Nc3nc(N)c(C(=O)c4c(F)cccc4F)s3)cc2)cn1 [Example G215] |  |  |  | 18% | 27% | 22% | 73% | 
CC(=O)c1ccc(NC(=O)c2ccc(Nc3nc(N)c(C(=O)c4c(F)cccc4F)s3)cc2)cc1 [Example G310] |  |  |  | −5% | 10% | 14% | 53% | 
Nc1nc(Nc2ccc(C(=O)NC3CCN(Cc4ccccc4)CC3)cc2)sc1C(=O)c1c(F)cccc1F [Example G178] | 20% | 54% | 83% |  |  |  |  | HCT-116 % Inhibition at 0.1 μM (HCT-116 cell line; HCT-116, at 0.1 μM): 43%
Nc1nc(Nc2ccc(C(=O)Nc3ccc4c(c3)S(=O)(=O)NC4=O)cc2)sc1C(=O)c1c(F)cccc1F [Example G101] | 11% | 19% | 46% |  |  |  |  | HCT-116 % Inhibition at 0.1 μM (HCT-116 cell line; HCT-116, at 0.1 μM): 10%
CC(CCCC(C)(C)O)NC(=O)c1ccc(Nc2nc(N)c(C(=O)c3c(F)cccc3F)s2)cc1 (centres unmarked) [Example G237] |  |  |  | 9% | 12% | 20% | 49% | 
Nc1nc(Nc2ccc(C(=O)NC(CO)CSCc3ccccc3)cc2)sc1C(=O)c1c(F)cccc1F (centres unmarked) [Example G383] |  |  |  | 15% | −10% | 33% | 51% | 
N#CCc1ccc(NC(=O)c2ccc(Nc3nc(N)c(C(=O)c4c(F)cccc4F)s3)cc2)cc1 [Example G321] |  |  |  | 1% | 19% | 11% | 51% | 
Nc1nc(Nc2ccc(C(=O)NCc3cc(F)ccc3F)cc2)sc1C(=O)c1c(F)cccc1F [Example G309] |  |  |  | 17% | 30% | 5% | 65% | 
CC(C)NC(=O)CN1CCN(C(=O)c2ccc(Nc3nc(N)c(C(=O)c4c(F)cccc4F)s3)cc2)CC1 [Example G335] |  |  |  | 2% | 21% | 3% | 42% | 
CCCOCCNC(=O)c1ccc(Nc2nc(N)c(C(=O)c3c(F)cccc3F)s2)cc1 [Example G165] | 1% | 22% | 61% |  |  |  |  | HCT-116 % Inhibition at 0.1 μM (HCT-116 cell line; HCT-116, at 0.1 μM): 0%

— US6720346B2, “Thiazole benzamide derivatives and pharmaceutical compositions for inhibiting cell proliferation” (Agouron Pharmaceuticals, Inc., priority 2001, dated 2004)
